Assay results published in PMC11589570, “Critical assessment of LC3/GABARAP ligands used for degrader development and ligandability of LC3/GABARAP binding pockets” (Nature Communications, 2024).
Values joined by “and” are separate entries in the source; they are usually repeats but may differ in a detail not shown here. Equal values may be shown once.

What was measured:
Experiment in all cases: FP assay with Cy5-labelled p62 LIR tracer (protein titration and tracer displacement)
[1] = molecular target: GABARAPL2 (Homo sapiens, UniProt P60520); settings: GABARAPL2
Sequence of GABARAPL2 (P60520 whole entry): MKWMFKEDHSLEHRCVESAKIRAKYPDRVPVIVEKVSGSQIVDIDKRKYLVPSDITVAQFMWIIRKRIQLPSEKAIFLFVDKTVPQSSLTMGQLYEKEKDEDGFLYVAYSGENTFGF

[2] = molecular target: GABARAPL1 (Homo sapiens, UniProt Q9H0R8); assay type: binding; settings: for normalized FP signal, p62 LIR tracer displacement: GABARAPL1; for compound titration GABARAPL1 (displacement curve, FP signal): two replicate columns per compound; for FP tracer displacement curve signal (compound titration): duplicate values
Sequence of GABARAPL1 (Q9H0R8 whole entry): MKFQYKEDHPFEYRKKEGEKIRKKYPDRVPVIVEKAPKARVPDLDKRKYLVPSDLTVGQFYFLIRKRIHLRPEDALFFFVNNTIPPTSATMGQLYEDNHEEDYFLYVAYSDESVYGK

[3] = molecular target: GABARAP (Homo sapiens, UniProt O95166); assay type: binding; settings: for normalized FP signal, p62 LIR tracer displacement: GABARAP; for compound titration GABARAP (displacement curve, FP signal): two replicate columns per compound
Sequence of GABARAP (O95166 1-116): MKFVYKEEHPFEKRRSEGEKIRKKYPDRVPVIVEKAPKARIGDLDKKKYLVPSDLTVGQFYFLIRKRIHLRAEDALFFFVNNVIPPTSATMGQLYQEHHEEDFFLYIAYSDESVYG

[4] = molecular target: LC3C (Homo sapiens, UniProt Q9BXW4); assay type: binding; settings: for normalized FP signal, p62 LIR tracer displacement: LC3C, listed as AN2; for compound titration LC3C (displacement curve, FP signal): two replicate columns per compound
Sequence of LC3C (Q9BXW4 1-126): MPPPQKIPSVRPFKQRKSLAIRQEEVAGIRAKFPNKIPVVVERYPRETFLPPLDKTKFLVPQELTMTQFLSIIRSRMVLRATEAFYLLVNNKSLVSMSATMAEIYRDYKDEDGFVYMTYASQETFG

[5] = log10 concentration [M] -3.82391, listed as AN2
[6] = log10 concentration [M] -4.1549, listed as AN2
[7] = log10 concentration [M] -4.60206
[8] = log10 concentration [M] -4.60206, listed as AN2
[9] = log10 concentration [M] -5, listed as AN2
[10] = log10 concentration [M] -5.30103, listed as AN2
[11] = log10 concentration [M] -5.69897, listed as AN2
[12] = log10 concentration [M] -6.22185, listed as AN2
[13] = log10 concentration [M] -6.69897
[14] = log10 concentration [M] -6.69897, listed as AN2
[15] = log10 concentration [M] -7.30103
[16] = log10 concentration [M] -7.30103, listed as AN2
[17] = log10 concentration [M] -7.79588, listed as AN2
[18] = log10 concentration [M] -8.08092
[19] = log10 concentration [M] -8.08092, listed as AN2
[20] = log10 concentration [M] -5.69897
[21] = log10 concentration [M] -3.82391
[22] = log10 concentration [M] -4.1549
[23] = log10 concentration [M] -5.30103
[24] = log10 concentration [M] -6.22185
[25] = log10 concentration [M] -7.79588

**Q.** What does the source list for `O=c1cc(-c2ccccc2)c2c(O)cc(O)cc2o1` [compound 2]?
**A.** normalized FP signal, p62 LIR tracer displacement [1, 5]: 88.4 and 85.2; normalized FP signal, p62 LIR tracer displacement [1, 6]: 94.4 and 106.4; normalized FP signal, p62 LIR tracer displacement [1, 7]: 106; normalized FP signal, p62 LIR tracer displacement [1, 8]: 104.4; normalized FP signal, p62 LIR tracer displacement [1, 9]: 98 and 106.4; normalized FP signal, p62 LIR tracer displacement [1, 10]: 104 and 108.8; normalized FP signal, p62 LIR tracer displacement [1, 11]: 92.8 and 98.4; normalized FP signal, p62 LIR tracer displacement [1, 12]: 104 and 94.4; normalized FP signal, p62 LIR tracer displacement [1, 13]: 100; normalized FP signal, p62 LIR tracer displacement [1, 14]: 104.4; normalized FP signal, p62 LIR tracer displacement [1, 15]: 116.4; normalized FP signal, p62 LIR tracer displacement [1, 16]: 100.8; normalized FP signal, p62 LIR tracer displacement [1, 17]: 103.2 and 104; normalized FP signal, p62 LIR tracer displacement [1, 18]: 105.2; normalized FP signal, p62 LIR tracer displacement [1, 19]: 104.4; normalized FP signal, p62 LIR tracer displacement [2, 5]: 90.5714 and 94.4286; normalized FP signal, p62 LIR tracer displacement [2, 6]: 97.5714 and 96.8571; normalized FP signal, p62 LIR tracer displacement [2, 8]: 97.1429 and 99; normalized FP signal, p62 LIR tracer displacement [2, 9]: 102.429 and 102.286; normalized FP signal, p62 LIR tracer displacement [2, 10]: 100.429 and 101.143; normalized FP signal, p62 LIR tracer displacement [2, 20]: 94.4286; normalized FP signal, p62 LIR tracer displacement [2, 12]: 98.5714 and 100.714; normalized FP signal, p62 LIR tracer displacement [2, 14]: 98.7143 and 100.143; normalized FP signal, p62 LIR tracer displacement [2, 16]: 102 and 99.5714; normalized FP signal, p62 LIR tracer displacement [2, 17]: 98.1429 and 99.4286; normalized FP signal, p62 LIR tracer displacement [2, 19]: 98.8571 and 103.429; compound titration GABARAPL1 (displacement curve, FP signal) [2, 21]: 90.5714 and 94.4286; compound titration GABARAPL1 (displacement curve, FP signal) [2, 22]: 97.5714 and 96.8571; compound titration GABARAPL1 (displacement curve, FP signal) [2, 7]: 97.1429 and 99; compound titration GABARAPL1 (displacement curve, FP signal) ([2]; log10 concentration [M] -5): 102.429 and 102.286; FP tracer displacement curve signal (compound titration) [2, 20]: 94.4286; FP tracer displacement curve signal (compound titration) [2, 12]: 98.5714 and 100.714; FP tracer displacement curve signal (compound titration) [2, 14]: 98.7143 and 100.143; FP tracer displacement curve signal (compound titration) [2, 16]: 102 and 99.5714; FP tracer displacement curve signal (compound titration) [2, 17]: 98.1429 and 99.4286; FP tracer displacement curve signal (compound titration) [2, 19]: 98.8571 and 103.429; normalized FP signal, p62 LIR tracer displacement [3, 5]: 92.5862 and 91.2069; normalized FP signal, p62 LIR tracer displacement [3, 6]: 93.9655 and 97.069; normalized FP signal, p62 LIR tracer displacement [3, 8]: 97.069 and 101.207; normalized FP signal, p62 LIR tracer displacement [3, 9]: 96.5517 and 105.172; normalized FP signal, p62 LIR tracer displacement [3, 10]: 96.8966 and 99.8276; normalized FP signal, p62 LIR tracer displacement [3, 11]: 95.5172 and 91.0345; normalized FP signal, p62 LIR tracer displacement [3, 12]: 96.2069 and 97.7586; normalized FP signal, p62 LIR tracer displacement [3, 14]: 98.1034 and 96.7241; normalized FP signal, p62 LIR tracer displacement [3, 15]: 99.8276; normalized FP signal, p62 LIR tracer displacement [3, 17]: 98.1034 and 97.931; normalized FP signal, p62 LIR tracer displacement [3, 18]: 97.5862; normalized FP signal, p62 LIR tracer displacement [3, 19]: 104.655; compound titration GABARAP (displacement curve, FP signal) [3, 21]: 92.5862 and 91.2069; compound titration GABARAP (displacement curve, FP signal) [3, 22]: 93.9655 and 97.069; compound titration GABARAP (displacement curve, FP signal) [3, 7]: 97.069 and 101.207; compound titration GABARAP (displacement curve, FP signal) ([3]; log10 concentration [M] -5): 96.5517 and 105.172; compound titration GABARAP (displacement curve, FP signal) [3, 23]: 96.8966 and 99.8276; compound titration GABARAP (displacement curve, FP signal) [3, 20]: 95.5172 and 91.0345; compound titration GABARAP (displacement curve, FP signal) [3, 24]: 96.2069 and 97.7586; compound titration GABARAP (displacement curve, FP signal) [3, 13]: 98.1034 and 96.7241; compound titration GABARAP (displacement curve, FP signal) [3, 15]: 99.8276; compound titration GABARAP (displacement curve, FP signal) [3, 25]: 98.1034 and 97.931; compound titration GABARAP (displacement curve, FP signal) [3, 18]: 97.5862 and 104.655; normalized FP signal, p62 LIR tracer displacement [4, 21]: 84.2 and 87; normalized FP signal, p62 LIR tracer displacement [4, 22]: 90.8 and 97; normalized FP signal, p62 LIR tracer displacement [4, 7]: 92.6 and 96.6; normalized FP signal, p62 LIR tracer displacement ([4]; log10 concentration [M] -5): 91.6 and 99.8; normalized FP signal, p62 LIR tracer displacement [4, 23]: 95.6 and 98.4; normalized FP signal, p62 LIR tracer displacement [4, 20]: 90.8 and 90.6; normalized FP signal, p62 LIR tracer displacement [4, 24]: 97.2 and 95.2; normalized FP signal, p62 LIR tracer displacement [4, 13]: 99.8 and 97.8; normalized FP signal, p62 LIR tracer displacement [4, 15]: 98 and 96.2; normalized FP signal, p62 LIR tracer displacement [4, 25]: 91.6 and 93.8; normalized FP signal, p62 LIR tracer displacement [4, 18]: 99 and 100.4; compound titration LC3C (displacement curve, FP signal) [4, 21]: 84.2 and 87; compound titration LC3C (displacement curve, FP signal) [4, 22]: 90.8 and 97; compound titration LC3C (displacement curve, FP signal) [4, 7]: 92.6 and 96.6; compound titration LC3C (displacement curve, FP signal) ([4]; log10 concentration [M] -5): 91.6 and 99.8; compound titration LC3C (displacement curve, FP signal) [4, 23]: 95.6 and 98.4; compound titration LC3C (displacement curve, FP signal) [4, 20]: 90.8 and 90.6; compound titration LC3C (displacement curve, FP signal) [4, 24]: 97.2 and 95.2; compound titration LC3C (displacement curve, FP signal) [4, 13]: 99.8 and 97.8; compound titration LC3C (displacement curve, FP signal) [4, 15]: 98 and 96.2; compound titration LC3C (displacement curve, FP signal) [4, 25]: 91.6 and 93.8; compound titration LC3C (displacement curve, FP signal) [4, 18]: 99 and 100.4
